Experimental findings from patent US20250074911A1, “MACROCYCLIC BTK INHIBITORS” (Crossfire Oncology Holding B.V., priority 2021, published 2025) are described below.

Where two headings read alike, the source gives them in different places. A value given as a limit tells only on which side of the number the result lay.

Experiment [1] deals with REC-1 T474I cell lines. The experiment is described as follows: Cell proliferation assay REC-1 BTK T474I knock-in cells (ATPlite, 72 hours). The conditions noted are these: Homo sapiens, Rec1; 72 hours; read-out: IC50 REC-1 T474I. It is filed as cell-based. A digest of the protocol:
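REC-1 cells carrying CRISPR knock-in mutant BTK, single-cell cloned and sequence-confirmed, were exposed to compound for 72 h and read by ATPlite luminescence. Percentage growth was calculated against the signal at the start of incubation and against untreated 0.3% DMSO wells as maximum growth.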

Experiment [2] has as its target full-length BTK C481S enzyme (Homo sapiens (Human), UniProt Q06187, C481S). The experiment is described as follows: Biochemical kinase assay BTK C481S (IMAP). A digest of the protocol: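 IC50 values come from IMAP fluorescence polarization after quenching with progressive binding solution. The reaction ran 2 h at room temperature in the dark with 1.2 nM full-length C481S enzyme, 7 μM ATP and 50 nM fluorescein-labelled MBP-derived peptide, following a 1 h dark pre-incubation of compound with enzyme.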

Experiment [3] has as its system wt-REC-1 mantle cell lymphoma cells. The experiment is described as follows: Cell proliferation assay wt-REC-1 (ATPlite, 72 hours). In kind it is cell-based. The note with it: read-out: IC50 wt-REC-1. A digest of the protocol: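 Luminescent viability read over 72 h, start-of-incubation signal recorded separately to separate growth from cell death. Percentage growth referenced to compound-free 0.3% DMSO wells; IC50 from 4-parameter logistic fit.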

The target of experiment [4] is full-length wt-BTK enzyme (Homo sapiens (Human), UniProt Q06187). The experiment is described as follows: Biochemical kinase assay wt-BTK (IMAP). The procedure, abridged:
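Compound and enzyme (final 1.2 nM) were pre-incubated for 1 h at RT, after which the reaction was started with 4 μM ATP plus 50 nM fluorescein-MBP substrate peptide. After 2 h in the dark, the IMAP progressive binding reagent stopped the reaction, and phosphorylation was read by fluorescence polarization.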

Experiment [5] has as its system wt-TMD8 diffuse large B-cell lymphoma cells. The experiment is described as follows: Cell proliferation assay wt-TMD8 (ATPlite, 120 hours). It is filed as cell-based. The note with it: B-cell; wt-TMD8 cells, 120 hours, ATPlite; read-out: IC50 wt-TMD8. A digest of the protocol: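 Readout is percentage growth from ATPlite 1Step luminescence after 5 days (120 h) compound treatment of wt-TMD8 lymphoma cells (1600/well, RPMI-1640 + 10% FBS). Time-zero signal separates growth inhibition from cell kill; 0.3% DMSO wells without compound define maximal growth.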

Experiment [6] deals with wt-BTK (Homo sapiens (Human), UniProt Q06187). The experiment is described as follows: Binding kinetics measurements (Surface Plasmon Resonance) on wt-BTK. The conditions noted are these: target residence time, SPR. The protocol: (§1) Binding kinetics measurements on wt-BTK, BTK […], BTK […], BTK […] and BTK […] (Surface Plasmon Resonance) Streptavidin-coated chips (Cat. No. BR100531), disposables and maintenance kits for Biacore were purchased from Cytiva (Eindhoven, The Netherlands). […] Remaining streptavidin was blocked with biocytin. Immobilization was performed at 4° C. Subsequent assay steps were conducted at 22° C. After changing buffer to Biacore buffer with 1% (v/v) dimethylsulfoxide (DMSO), a pre-run was performed for a period of at least 30 min at a flow rate of 30 μl/min to obtain a stable surface. The kinetic constants of the compounds were determined with single cycle kinetics with five consecutive injections with an increasing compound concentration with ranges of 3.16-316 nM. […] To circumvent problems of mass transport limitation, a flow rate of 30 μl/min was used. A blank run with the same conditions was performed before the compound was injected. The SPR sensorgrams were analyzed with Biacore Evaluation Software by using a method of double referencing. First the reference channel was subtracted from the channel containing immobilized protein. Subsequently, the reference curve obtained with buffer injections was subtracted. […] Compounds that bound according to an induced fit model were fitted with a two-state reaction model. The kinetic constants (ka, […], KD) of duplicates were geometrically averaged. […] Target residence for an induced fit model was calculated as described (Tummino and Copeland, 2008).
Chain of wt-BTK (Q06187 whole entry): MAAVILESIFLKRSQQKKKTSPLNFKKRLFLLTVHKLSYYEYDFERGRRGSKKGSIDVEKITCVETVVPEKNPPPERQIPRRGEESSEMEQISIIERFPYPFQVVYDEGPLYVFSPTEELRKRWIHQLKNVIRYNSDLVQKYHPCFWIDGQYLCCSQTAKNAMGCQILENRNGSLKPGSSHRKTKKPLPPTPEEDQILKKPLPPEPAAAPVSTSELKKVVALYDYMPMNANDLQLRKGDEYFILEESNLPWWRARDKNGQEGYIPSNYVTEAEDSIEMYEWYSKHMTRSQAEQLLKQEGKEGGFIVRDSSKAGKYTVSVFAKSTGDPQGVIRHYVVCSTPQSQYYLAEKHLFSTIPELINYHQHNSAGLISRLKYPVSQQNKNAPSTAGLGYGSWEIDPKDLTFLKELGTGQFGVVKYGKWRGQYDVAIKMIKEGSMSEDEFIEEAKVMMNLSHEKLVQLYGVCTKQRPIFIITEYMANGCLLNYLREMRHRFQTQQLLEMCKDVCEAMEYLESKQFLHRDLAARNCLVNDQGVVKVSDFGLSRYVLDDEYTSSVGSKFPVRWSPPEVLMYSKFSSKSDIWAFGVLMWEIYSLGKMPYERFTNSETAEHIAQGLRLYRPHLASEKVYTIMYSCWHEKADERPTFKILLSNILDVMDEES

Experiment [7] has as its target BTK T474I (Homo sapiens (Human), UniProt Q06187, T474I). The experiment is described as follows: Binding kinetics measurements (Surface Plasmon Resonance) on BTK T474I. The conditions noted are these: target residence time, SPR. The protocol: as §1

Chain of full-length BTK C481S enzyme (Q06187 whole entry C481S): as the sequence (Q06187 whole entry) above, with C481S counted along it
Chain of full-length wt-BTK enzyme (Q06187 whole entry): as the sequence (Q06187 whole entry) above
Chain of BTK T474I (Q06187 whole entry T474I): as the sequence (Q06187 whole entry) above, with T474I counted along it

For the compound `Nc1ncc2n3c(nc(-c4ccc(C(=O)Nc5cc(C6CC6)ccn5)cc4)c13)[C@@H]1CC[C@H](C1)NC(=O)CCOCC/C=C/2` [Example 223], the IC50 in experiment [1] is 100 to 500 nM; in experiment [2], under 5 nM; in experiment [3] (72 h), under 100 nM; in experiment [4] it was under 5 nM; in experiment [5] it was under 100 nM. Also, the “Tau (h) wt-BTK (Act)” value in experiment [6] is 2.52 h.
In the case of `Nc1ncc2c3c1c(-c1ccc(C(=O)Nc4cc(C(F)(F)F)ccn4)cc1)nn3[C@@H]1CN[C@H](C1)C(=O)NCCCCC/C=C/2` [Example 225], the IC50 in experiment [1] is 500 to 10000 nM; in experiment [2], under 5 nM; in experiment [3] (72 h), under 100 nM; in experiment [4], under 5 nM. Moreover, the “Tau (h) wt-BTK (Act)” value in experiment [6] was 3.59 h. Besides, the “Tau (h) BTK T474I (Act)” value in experiment [7] is 1.19 h.
Take `CC(=O)N1C[C@@H]2C[C@@H]1C(=O)NCCCCC/C=C/c1cnc(N)c3c(-c4ccc(C(=O)Nc5cc(C(F)(F)F)ccn5)cc4)nn2c13` [Example 226]: the IC50 in experiment [1] is 500 to 10000 nM; in experiment [2], under 5 nM; in experiment [3] (72 h), 1000 to 10000 nM; in experiment [4], under 5 nM. In experiment [6], the “Tau (h) wt-BTK (Act)” value was found to be 2.76 h.
Take `COc1cc(-c2nn3c4c(cnc(N)c24)/C=C/COCCC(=O)N[C@@H]2CCC[C@@H]3C2)ccc1C(=O)Nc1cc(C(F)(F)F)ccn1` [Example 188]: the IC50 was under 100 nM in experiment [1]; under 5 nM in experiment [2]; under 100 nM in experiment [3] (72 h); under 5 nM in experiment [4]; under 100 nM in experiment [5]. Further, the “Tau (h) BTK T474I (Act)” value in experiment [7] is reported as over 24 h.
Regarding `C[C@@H]1CCn2nc(-c3cnn(Cc4ccccc4)c3)c3c(N)ncc(c32)/C=C/CCCCCC(=O)N1` [Example 171], the IC50 in experiment [1] is 500 to 10000 nM; in experiment [2] it was 50 to 500 nM; in experiment [3] (72 h), 1000 to 10000 nM; in experiment [4] it was 50 to 500 nM; in experiment [5] it was 1000 to 10000 nM.
On to `Nc1ncc2c3c1c(-c1ccc(C(=O)Nc4cc(C(F)(F)F)ccn4)cc1)nn3[C@@H]1CCC[C@H](C1)NC(=O)CCCCCC/C=C\C2` [Example 103b], for which the IC50 in experiment [1] is 100 to 500 nM; in experiment [2] it was under 5 nM; in experiment [3] (72 h), 100 to 1000 nM; in experiment [4], under 5 nM; in experiment [5] it was under 100 nM.
For `CC1NC/C=C/c2cnc(N)c3c(-c4ccc(C(=O)Nc5cc(C(F)(F)F)ccn5)cc4)nn(c23)CC[C@@H](C)NC1=O` (single isomer, unassigned) [Example 143], the IC50 in experiment [1] is 500 to 10000 nM; in experiment [2], under 5 nM; in experiment [3] (72 hours), 100 to 1000 nM; in experiment [4] it was under 5 nM; in experiment [5], under 100 nM.
Regarding `COc1ccc(F)cc1C(=O)NCc1ccc(-c2nc3n4c(cnc(N)c24)/C=C/CCNCC(=O)N[C@@H]2CC[C@@H]3C2)cc1` [Example 219], the IC50 in experiment [1] was 500 to 10000 nM; in experiment [2] it was under 5 nM; in experiment [3] (72 h) it was 100 to 1000 nM; in experiment [4], under 5 nM; in experiment [5], under 100 nM.
Consider `Nc1ncc2c3c1c(-c1ccc(C(=O)Nc4ccccn4)cc1)nn3[C@@H]1CCC[C@H](C1)C(=O)NCCCCCCC2` [Example 118], for which the IC50 was 500 to 10000 nM in experiment [1]; under 5 nM in experiment [2]; under 100 nM in experiment [3] (72 h); under 5 nM in experiment [4]; under 100 nM in experiment [5].
For the compound `C[C@@H]1CCn2nc(-c3ccc(C(=O)Nc4cc(C(F)(F)F)ccn4)cc3)c3c(N)ncc(c32)/C=C/C[C@@H](C)OCCC(=O)N1` [Example 72], the IC50 is 500 to 10000 nM in experiment [1]; under 5 nM in experiment [2]; under 100 nM in experiment [3] (72 h); under 5 nM in experiment [4]; under 100 nM in experiment [5].
For the compound `Nc1ncc2c3c1c(-c1ccc(C(=O)Nc4ccccn4)cc1)nn3[C@@H]1CCC[C@H](C1)NC(=O)CCCCCC/C=C/2` [Example 29], the half-maximal inhibitory concentration (IC50) in experiment [1] was 100 to 500 nM; in experiment [2], under 5 nM; in experiment [3] (72 h), under 100 nM; in experiment [4], under 5 nM; in experiment [5], under 100 nM.
As to `C[C@@H]1CNC(=O)[C@@H]2CCC[C@H](C2)n2nc(-c3ccc(C(=O)Nc4cc(C(F)(F)F)ccn4)cc3)c3c(N)ncc(c32)/C=C/CN1C` [Example 154], the IC50 was 500 to 10000 nM in experiment [1]; under 5 nM in experiment [2]; 1000 to 10000 nM in experiment [3] (72 h); under 5 nM in experiment [4]; under 100 nM in experiment [5].
Consider `Nc1ncc2c3c1c(-c1ccc(C(=O)Nc4cc(C(F)(F)F)ccn4)cc1)nn3[C@@H]1CCCN(C1)C(=O)CCCCCCC/C=C/2` [Example 80], for which the IC50 in experiment [1] was under 100 nM; in experiment [2], under 5 nM; in experiment [3] (72 h), under 100 nM; in experiment [4], under 5 nM; in experiment [5], under 100 nM.
Turning to `C[C@@H]1CCn2nc(-c3ccc(C(=O)Nc4cc(C(F)(F)F)ccn4)cc3)c3c(N)ncc(c32)/C=C/CCCCCC(=O)N1` [Example 60], the IC50 in experiment [1] is 500 to 10000 nM; in experiment [2] it was under 5 nM; in experiment [3] (72 h), under 100 nM; in experiment [4] it was under 5 nM; in experiment [5] it was under 100 nM.
For the compound `C[C@@H]1CC(=O)N[C@@H]2CCC[C@H](C2)c2nc(-c3ccc(C(=O)Nc4cc(C#N)ccn4)cc3)c3c(N)ncc(n23)/C=C/CCN1` [Example 206], the IC50 in experiment [1] is 500 to 10000 nM; in experiment [2], under 5 nM; in experiment [3] (72 h), under 100 nM; in experiment [4], under 5 nM; in experiment [5], under 100 nM.
For `Nc1ncc2c3c1c(-c1ccc(C(=O)Nc4cc(C(F)(F)F)ccn4)cc1)nn3[C@@H]1CCC[C@H](C1)NC(=O)[C@H]1CCN1CC/C=C/2` [Example 42], the IC50 in experiment [1] was 100 to 500 nM; in experiment [2], under 5 nM; in experiment [3] (72 h) it was under 100 nM; in experiment [4] it was under 5 nM; in experiment [5], under 100 nM.
As to `Nc1ncc2c3c1c(-c1ccc(C(=O)Nc4ccccn4)cc1)nn3[C@@H]1CCC[C@H](C1)NC(=O)CCCCC/C=C\C2` [Example 102b], the IC50 in experiment [1] was 500 to 10000 nM; in experiment [2], under 5 nM; in experiment [3] (72 h), 100 to 1000 nM; in experiment [4], 5 to 50 nM; in experiment [5], under 100 nM.
For `CN1CCC/C=C/c2cnc(N)c3c(-c4ccc(C(=O)Nc5cc(C(F)(F)F)ccn5)cc4)nn(c23)[C@@H]2CCC[C@H](C2)NC(=O)C1` [Example 41], in that order: under 100 nM, under 5 nM, under 100 nM, under 5 nM and under 100 nM.
Turning to `Nc1ncc2c3c1c(-c1ccc(C(=O)Nc4cc(C(F)(F)F)ccn4)cc1)nn3[C@@H]1CCC[C@H](C1)NC(=O)COC/C=C\C2` [Example 97b], the IC50 in experiment [1] is 500 to 10000 nM; in experiment [2], under 5 nM; in experiment [3] (72 h), 100 to 1000 nM; in experiment [4] it was 5 to 50 nM; in experiment [5], under 100 nM.
Regarding `Nc1ncc2c3c1c(-c1ccc(C(=O)Nc4cc(C(F)(F)F)ccn4)cc1)nn3[C@@H]1CCC[C@H](C1)NC(=O)CCCCC/C=C\C2` [Example 101b], the IC50 is 500 to 10000 nM in experiment [1]; under 5 nM in experiment [2]; 100 to 1000 nM in experiment [3] (72 h); under 5 nM in experiment [4]; under 100 nM in experiment [5].
As for `C[C@@H]1CCn2nc(-c3ccc(Oc4ccccc4)cc3)c3c(N)ncc(c32)/C=C/CCCCCC(=O)N1` [Example 173], the IC50 was 500 to 10000 nM in experiment [1]; under 5 nM in experiment [2]; under 100 nM in experiment [3] (72 h); under 5 nM in experiment [4]; under 100 nM in experiment [5].
